Reference: ChEMBL document CHEMBL5096149, “Recent Update on Targeting c-MYC G-Quadruplexes by Small Molecules for Anticancer Therapeutics” (J Med Chem, 2021)

What was measured:
[1] = test system: Quadruplex DNA; assay: Binding affinity to c-MYC G-quadruplex DNA (unknown origin) assessed as association constant by fluorescence spectroscopy; assay type: nucleic-acid assay
[2] = test system: Quadruplex DNA; assay: Thermal stabilization of c-MYC G-quadruplex DNA (unknown origin) assessed as change in melting temperature at 1:5 ratio by FRET melting assay; assay type: nucleic-acid assay
[3] = test system: HeLa; assay: Antiproliferative activity against human HeLa cells assessed as inhibition of cell growth incubated for 24 hrs by XTT assay; assay type: functional, cell-based
[4] = test system: HCT-116; assay: Antiproliferative activity against human HCT-116 cells assessed as inhibition of cell growth incubated for 24 hrs by XTT assay; assay type: functional, cell-based; details: HCT-116, 24 h
[5] = Antiproliferative activity against human Kidney epithelial cells assessed as inhibition of cell growth incubated for 24 hrs by XTT assay; assay type: toxicity, cell-based
[6] = test system: HepG2; assay: Cytotoxicity against human HepG2 cells assessed as reduction in cell viability incubated for 24 hrs by MTT assay; assay type: functional, cell-based; details: HepG2, 24 h
[7] = test system: MCF7; assay: Cytotoxicity against human MCF7 cells assessed as reduction in cell viability incubated for 24 hrs by MTT assay; assay type: functional, cell-based; details: MCF7, 24 h
[8] = test system: HCT-116; assay: Cytotoxicity against human HCT-116 cells assessed as reduction in cell viability incubated for 24 hrs by MTT assay; assay type: functional, cell-based; details: HCT-116, 24 h
[9] = Cytotoxicity against mouse C2C12 cells assessed as reduction in cell viability incubated for 24 hrs by MTT assay; assay type: toxicity, cell-based
[10] = test system: Quadruplex DNA; assay: Binding affinity to c-MYC G-quadruplex (Mer22) DNA (unknown origin) assessed as first order binding constant by isothermal titration calorimetry method; assay type: nucleic-acid assay
[11] = test system: Quadruplex DNA; assay: Binding affinity to c-MYC G-quadruplex (Mer22) DNA (unknown origin) assessed as second order binding constant by isothermal titration calorimetry method; assay type: nucleic-acid assay
[12] = test system: Quadruplex DNA; assay: Binding affinity to c-MYC G-quadruplex (Mer22) DNA (unknown origin) assessed as association rate constant by surface plasmon resonance analysis; assay type: nucleic-acid assay
[13] = test system: Quadruplex DNA; assay: Thermal stabilization of c-MYC G-quadruplex (Mer22) DNA (unknown origin) assessed as change in melting temperature at 1:3 ratio by UV-Vis spectroscopy; assay type: nucleic-acid assay
[14] = test system: Quadruplex DNA; assay: Thermal stabilization of c-MYC G-quadruplex (Mer22) DNA (unknown origin) assessed as change in melting temperature at 1:3 ratio by FRET melting assay; assay type: nucleic-acid assay
[15] = test system: Quadruplex DNA; assay: Binding affinity to c-MYC G-quadruplex (Pu22) DNA (unknown origin) assessed as association constant by fluorescence spectroscopy; assay type: nucleic-acid assay
[16] = test system: Quadruplex DNA; assay: Binding affinity to c-MYC G-quadruplex (Pu22) DNA (unknown origin) assessed as association rate constant by isothermal titration calorimetry method; assay type: nucleic-acid assay
[17] = test system: HeLa; assay: Antiproliferative activity against human HeLa cells assessed as inhibition of cell growth by XTT assay; assay type: functional, cell-based
[18] = Antiproliferative activity against human Kidney epithelial cells assessed as inhibition of cell growth by XTT assay; assay type: toxicity, cell-based
[19] = test system: Quadruplex DNA; assay: Binding affinity to c-MYC G-quadruplex DNA (unknown origin) assessed as association rate constant by isothermal titration calorimetry method; assay type: nucleic-acid assay
[20] = test system: Quadruplex DNA; assay: Binding affinity to c-MYC G-quadruplex DNA (unknown origin) assessed as association rate constant by UV-Vis spectroscopy; assay type: nucleic-acid assay
[21] = test system: Quadruplex DNA; assay: Binding affinity to c-MYC G-quadruplex DNA (unknown origin) assessed as first order binding constant by electrospray ionization mass spectrometry; assay type: nucleic-acid assay
[22] = test system: Quadruplex DNA; assay: Binding affinity to c-MYC G-quadruplex DNA (unknown origin) assessed as second order binding constant by electrospray ionization mass spectrometry; assay type: nucleic-acid assay
[23] = test system: Quadruplex DNA; assay: Thermal stabilization of c-MYC G-quadruplex DNA (unknown origin) assessed as change in melting temperature at 1:2.5 ratio by FRET melting assay; assay type: nucleic-acid assay
[24] = test system: L-363; assay: Cytotoxicity against human L-363 cells assessed as inhibition of cell viability incubated for 72 hrs by MTS assay; assay type: functional, cell-based; details: L-363, 72 h
[25] = Cytotoxicity against human ARD cells assessed as inhibition of cell viability incubated for 72 hrs by MTS assay; assay type: functional, cell-based
[26] = Cytotoxicity against human JIM1 cells assessed as inhibition of cell viability incubated for 72 hrs by MTS assay; assay type: functional, cell-based; details: JIM1, 72 h
[27] = Cytotoxicity against human KMM-1 cells assessed as inhibition of cell viability incubated for 72 hrs by MTS assay; assay type: functional, cell-based; details: KMM-1, 72 h
[28] = test system: KMS-12-PE; assay: Cytotoxicity against human KMS-12-PE cells assessed as inhibition of cell viability incubated for 72 hrs by MTS assay; assay type: functional, cell-based
[29] = Cytotoxicity against human KMS-27 cells assessed as inhibition of cell viability incubated for 72 hrs by MTS assay; assay type: functional, cell-based; details: KMS-27, 72 h
[30] = test system: AMO1; assay: Cytotoxicity against human AMO1 cells assessed as inhibition of cell viability incubated for 72 hrs by MTS assay; assay type: functional, cell-based; details: AMO1, 72 h
[31] = test system: Quadruplex DNA; assay: Binding affinity to c-MYC G-quadruplex DNA (unknown origin) assessed as association rate constant by surface plasmon resonance analysis; assay type: nucleic-acid assay
[32] = test system: Quadruplex DNA; assay: Thermal stabilization of c-MYC G-quadruplex DNA (unknown origin) assessed as change in melting temperature at 1:4 ratio by circular dichroism spectroscopy; assay type: nucleic-acid assay
[33] = Cytotoxicity against human OPM-1 cells assessed as inhibition of cell viability incubated for 72 hrs by MTS assay; assay type: functional, cell-based; details: OPM-1, 72 h
[34] = Cytotoxicity against human Karpas-417 cells assessed as inhibition of cell viability incubated for 72 hrs by MTS assay; assay type: functional, cell-based; details: Karpas-417, 72 h
[35] = test system: NCI-H929; assay: Cytotoxicity against human NCI-H929 cells assessed as inhibition of cell viability incubated for 72 hrs by MTS assay; assay type: functional, cell-based; details: NCI-H929, 72 h
[36] = test system: CA46; assay: Cytotoxicity against human CA46 cells assessed as inhibition of cell viability incubated for 72 hrs by MTS assay; assay type: functional, cell-based; details: CA46, 72 h
[37] = Cytotoxicity against human HEK293T cells assessed as inhibition of cell viability incubated for 72 hrs by MTS assay; assay type: toxicity, cell-based, HEK-293T
[38] = Cytotoxicity against human Fibroblast cells assessed as inhibition of cell viability incubated for 72 hrs by MTS assay; assay type: toxicity, cell-based
[39] = test system: Quadruplex DNA; assay: Thermal stabilization of c-MYC G-quadruplex DNA (unknown origin) assessed as change in melting temperature at 1:10 ratio by FRET melting assay; assay type: nucleic-acid assay
[40] = test system: Quadruplex DNA; assay: Binding affinity to c-MYC G-quadruplex DNA (unknown origin) assessed as first order binding constant by surface plasmon resonance analysis; assay type: nucleic-acid assay
[41] = test system: Quadruplex DNA; assay: Binding affinity to c-MYC G-quadruplex DNA (unknown origin) assessed as second order binding constant by surface plasmon resonance analysis; assay type: nucleic-acid assay
[42] = test system: Quadruplex DNA; assay: Thermal stabilization of c-MYC G-quadruplex (Pu47) DNA (unknown origin) assessed as change in melting temperature at 1:5 ratio by FRET melting assay; assay type: nucleic-acid assay
[43] = test system: Raji; assay: Cytotoxicity against human Raji cells assessed as reduction in cell viability by MTS assay; assay type: functional, cell-based
[44] = test system: CA46; assay: Cytotoxicity against human CA46 cells assessed as reduction in cell viability by MTS assay; assay type: functional, cell-based

With CN(C)CCCNC(=O)c1ccc(-n2cc(-c3ccc4c(c3)c3ccccc3n4CCCN(C)C)nn2)cc1 the Ka [1] was 4.76 10^6/M, the ΔTm [2] was 15.8 °C and the IC50 [3] was 3.4 µM. For the same compound, the IC50 [4] was 3.2 µM and the IC50 at 24 h [5] was greater than 30 µM.
For CN(C)CCCNC(=O)c1ccc(-n2cc(-c3ccc4c(c3)c3cc(-c5cn(-c6ccc(C(=O)NCCCN(C)C)cc6)nn5)ccc3n4CCCN(C)C)nn2)cc1, the Ka [1] was 3.3 10^6/M, the ΔTm [2] was 22.7 °C and the IC50 [6] was 4.3 µM. The IC50 [7] was 6.8 µM, the IC50 [8] was 8.2 µM and the IC50 at 24 h [9] was greater than 45 µM.
For NCCC(=O)NCC1=C2CNC(=O)C3=CC(CNC(=O)CCN)=C(CNC(=O)c4cc(CNC(=O)CCN)c(o4)CNC(=O)C4=CC(CNC(=O)CCN)=C(CNC(=O)C(=C1)O2)O4)O3, the K [10] was 7.71 10^7/M, the K [11] was 5.2 10^5/M and the Ka [12] was 4.85 10^6/M. The ΔTm [13] was 25 °C and the ΔTm [14] was 23 °C.
For C/C(=N/Nc1nc2ccccc2s1)c1ccc(-c2cccc(C(=O)NCCCN(C)C)c2)o1, the Ka [1] was 1.3 10^5/M and the ΔTm [2] was 15.3 °C.
In the case of C(=N\Nc1nc(Nc2ccccc2)nc(Nc2ccccc2)n1)/c1c2ccccc2cc2ccccc12, the Ka [15] is reported as 8.33 10^5/M and the Ka [16] is reported as 9.53 10^4/M.
In the case of CN(CCCCn1cc(CCCC(=O)OC[C@H]2O[C@@H](n3cnc4c(=O)[nH]c(N)nc43)[C@@H]3OC(C)(C)O[C@@H]32)nn1)Cc1c2ccccc2c(CN(C)CCCCn2cc(CCCC(=O)OC[C@H]3O[C@@H](n4cnc5c(=O)[nH]c(N)nc54)[C@@H]4OC(C)(C)O[C@@H]43)nn2)c2ccccc12, the Ka [1] is reported as 2.56 10^6/M, the ΔTm [2] is reported as 8.8 °C and the IC50 [17] is reported as 6.2 µM. It also gave an IC50 [18] greater than 50 µM.
With C[n+]1cccc(-c2cc3c4cc(-c5ccc[n+](C)c5)c5nc(C(F)(F)C(F)(F)C(F)(F)F)nc6c(-c7ccc[n+](C)c7)cc(c7cc(-c8ccc[n+](C)c8)c8nc(C(F)(F)C(F)(F)C(F)(F)F)nc2c8c37)c4c56)c1 the Ka [1] was 2.31 10^7/M, the Ka [19] was 1.3 10^7/M and the Ka [20] was 2.38 10^7/M.
With O=c1c2ccc3c4c(N5CCCCC5)cc5c(=O)n(CCN6CCCCC6)c(=O)c6cc7c(CCN8CCCCC8)cc8cc(c(=O)n1CCN1CCCCC1)c2c3c8c7c4c56 the K [21] was 1.2 10^6/M, the K [22] was 6.3 10^5/M and the ΔTm [23] was 16.4 °C.
For Cc1oc2ccc(O)c(CN3CCCCCC3)c2c1C(=O)Nc1ccc(C(F)(F)F)cc1, the Ka [1] was 1.06 10^5/M, the IC50 [24] was 3.4 µM and the IC50 [25] was 5.75 µM. For the same compound, the IC50 [26] was 6.35 µM, the IC50 [27] was 4.13 µM and the IC50 [28] was 5.3 µM. For the same compound, the IC50 [29] was 5.06 µM, the IC50 [30] was 5.92 µM and the Ka [31] was 7.14 10^5/M. The ΔTm [32] was 7.5 °C, the IC50 [33] was 6.48 µM and the IC50 [34] was 4.8 µM. It also gave an IC50 [35] of 4.89 µM, an IC50 [36] of 9.2 µM and an IC50 at 72 h [37] of 34 µM. For the same compound, the IC50 at 72 h [38] was 19.6 µM.
In the case of CN(C)CCCNC(=O)c1ccc(-n2cc(-c3ccc4c(c3)c3ccccc3n4-c3ccc(C(=O)NCCCN(C)C)cc3)nn2)cc1, the Ka [1] is reported as 5.9 10^6/M, the ΔTm [39] is reported as 19.3 °C and the IC50 [8] is reported as 2.1 µM.
In the case of Cc1c2ccncc2c(C)c2c1[nH]c1ccc(OCCN(C)C)cc12, the K [40] is reported as 1 10^7/M, the K [41] is reported as 0.7 10^6/M and the ΔTm [42] is reported as 21 °C. It also gave an IC50 [43] of 2600 nM and an IC50 [44] of 13 µM.
